Results from ChEMBL document CHEMBL4420076, “Amylin and calcitonin receptor agonist” (2017).
Numbered stars: 1 amine (or outer) side, 2 acyl side, 3 side chain; on linkers, the order of the positions; unused ones are H or OH. Side chains are listed from the residue outwards. Peptide text beside a SMILES is read from it. * marks the point of attachment. C20 diacid = O=C(O)CCCCCCCCCCCCCCCCCCC(=O)*; γGlu = O=C(O)[C@H](CCC(=O)[*:2])N[*:1]; AEEA = NCCOCCOCC(=O)O

Assays:
[1] = Solubility in 100 mM glycylglycine buffer at pH 3.0 incubated for 18 hrs by UPLC analysis; format: physicochemical
[2] = target: T1, Amylin receptor AMY3; CALCR/RAMP3 (Rattus norvegicus, UniProt P32214+Q9JJ73); assay: Displacement of [125I]-labeled rat amylin from rat amylin receptor expressed in BHK tkts13 cell membranes co-expressing RAMP3 incubated for 120 mins by scintillation proximity assay
T1 sequence (P32214 whole entry): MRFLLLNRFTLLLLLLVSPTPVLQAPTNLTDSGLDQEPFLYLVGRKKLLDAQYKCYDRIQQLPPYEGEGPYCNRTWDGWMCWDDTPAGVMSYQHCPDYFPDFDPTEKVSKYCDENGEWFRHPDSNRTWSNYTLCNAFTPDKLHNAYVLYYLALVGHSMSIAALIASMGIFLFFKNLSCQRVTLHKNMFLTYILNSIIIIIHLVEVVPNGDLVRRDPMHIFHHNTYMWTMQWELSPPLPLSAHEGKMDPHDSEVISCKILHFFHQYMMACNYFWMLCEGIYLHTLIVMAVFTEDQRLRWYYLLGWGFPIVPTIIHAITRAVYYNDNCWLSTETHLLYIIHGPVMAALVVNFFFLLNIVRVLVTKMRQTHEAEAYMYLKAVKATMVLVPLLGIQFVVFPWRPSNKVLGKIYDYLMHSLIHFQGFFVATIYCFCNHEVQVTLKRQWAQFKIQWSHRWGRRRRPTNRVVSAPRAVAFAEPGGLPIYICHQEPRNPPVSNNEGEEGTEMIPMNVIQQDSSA
T1 sequence (Q9JJ73 whole entry): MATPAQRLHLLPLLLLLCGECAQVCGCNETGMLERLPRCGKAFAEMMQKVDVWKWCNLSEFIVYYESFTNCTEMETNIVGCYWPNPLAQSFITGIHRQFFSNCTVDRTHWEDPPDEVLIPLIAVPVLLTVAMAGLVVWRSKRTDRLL

[3] = Solubility in 100 mM glycylglycine buffer at pH 5.0 incubated for 18 hrs by UPLC analysis; format: physicochemical
Calcitonin receptor [4] = target: T2, Calcitonin receptor (Homo sapiens, UniProt P30988); assay: Agonist activity at human calcitonin receptor expressed in BHK570 cells assessed as increase in intracellular cAMP concentration incubated for 3 hrs in absence of albumin by CRE luciferase reporter gene assay; format: functional, cell-based
T2 sequence (P30988 whole entry): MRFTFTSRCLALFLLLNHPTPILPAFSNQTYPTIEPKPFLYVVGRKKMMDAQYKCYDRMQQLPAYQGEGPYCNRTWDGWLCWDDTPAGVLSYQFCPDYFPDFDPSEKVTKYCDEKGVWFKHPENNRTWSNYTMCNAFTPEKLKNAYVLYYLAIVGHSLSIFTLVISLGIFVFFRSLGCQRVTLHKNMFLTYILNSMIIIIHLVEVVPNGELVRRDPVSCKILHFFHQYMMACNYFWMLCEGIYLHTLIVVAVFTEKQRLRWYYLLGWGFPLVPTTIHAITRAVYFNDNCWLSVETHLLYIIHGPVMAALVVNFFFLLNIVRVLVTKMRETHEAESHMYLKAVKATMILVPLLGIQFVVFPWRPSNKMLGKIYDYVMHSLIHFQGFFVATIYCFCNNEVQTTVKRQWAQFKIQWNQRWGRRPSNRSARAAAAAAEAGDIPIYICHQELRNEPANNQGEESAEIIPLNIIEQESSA

Calcitonin receptor [5] = target: T2, Calcitonin receptor; assay: Displacement of [125I]-labeled human calcitonin from human calcitonin receptor expressed in BHK tkts13 cell membranes incubated for 1 hr by scintillation proximity assay
Calcitonin receptor [6] = target: T2, Calcitonin receptor; assay: Agonist activity at human calcitonin receptor expressed in BHK570 cells assessed as increase in intracellular cAMP concentration incubated for 3 hrs in presence of 10% FBS by CRE luciferase reporter gene assay; format: functional, cell-based
[7] = Solubility in 100 mM bistrispropane buffer at pH 6.0 incubated for 18 hrs by UPLC analysis; format: physicochemical
[8] = Solubility in 100 mM bistrispropane buffer at pH 7.0 incubated for 18 hrs by UPLC analysis; format: physicochemical
[9] = Stability in pH 7.5 buffer assessed as compound recovery at 1 uM by Thioflavin T based fluorescence assay; format: physicochemical; settings: read-out: Drug recovery
[10] = target: T3, Amylin receptor AMY3; CALCR/RAMP3 (Homo sapiens, UniProt O60896+P30988); assay: Agonist activity at human amylin receptor expressed in BHK570 cells co-expressing RAMP3 assessed as increase in intracellular cAMP concentration incubated for 3 hrs in presence of 10% FBS by CRE luciferase reporter gene assay; format: functional, cell-based
T3 sequence (P30988 whole entry): T2 sequence (P30988 whole entry)
T3 sequence (O60896 whole entry): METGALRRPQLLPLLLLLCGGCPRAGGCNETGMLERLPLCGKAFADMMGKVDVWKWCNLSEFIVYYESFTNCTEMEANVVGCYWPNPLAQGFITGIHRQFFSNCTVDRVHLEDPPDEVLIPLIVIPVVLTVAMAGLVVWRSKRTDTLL

[11] = Solubility in 100 mM bistrispropane buffer at pH 7.5 incubated for 18 hrs by UPLC analysis; format: physicochemical
[12] = Stability in pH 7.5 buffer assessed as lag time for fibril formation at 1 uM by Thioflavin T based fluorescence assay; format: physicochemical; settings: pH 7.5, 1 µM
[13] = Solubility in 100 mM glycylglycine buffer at pH 4.0 incubated for 18 hrs by UPLC analysis; format: physicochemical
[14] = Solubility in 100 mM bistrispropane buffer at pH 6.5 incubated for 18 hrs by UPLC analysis; format: physicochemical
[15] = Solubility in 100 mM bistrispropane buffer at pH 8.0 incubated for 18 hrs by UPLC analysis; format: physicochemical
[16] = target: T3, Amylin receptor AMY3; CALCR/RAMP3; assay: Agonist activity at human amylin receptor expressed in BHK570 cells co-expressing RAMP3 assessed as increase in intracellular cAMP concentration incubated for 3 hrs in absence of albumin by CRE luciferase reporter gene assay; format: functional, cell-based
[17] = target: T3, Amylin receptor AMY3; CALCR/RAMP3; assay: Displacement of [125I]-labeled rat amylin from human amylin receptor expressed in BHK570 cell membranes co-expressing RAMP3 incubated for 120 mins by scintillation proximity assay
Rattus norvegicus [18] = assay: Reduction in food intake in Sprague-Dawley rat at 3 nmol/kg measured 0 to 24 hrs post dose relative to control; format: functional; design: scale not given: the % may be the effect or the level left
Rattus norvegicus [19] = assay: Reduction in food intake in Sprague-Dawley rat at 3 nmol/kg measured 24 to 48 hrs post dose relative to control; format: functional; design: scale not given: the % may be the effect or the level left

| SMILES | solubility at 18 h [1] | IC50 [2] | solubility at 18 h [3] | EC50 (Calcitonin receptor [4]) | IC50 (Calcitonin receptor [5]) | EC50 (Calcitonin receptor [6]) | solubility at 18 h [7] | solubility at 18 h [8] | remaining at 1 µM [9] | EC50 [10] | solubility at 18 h [11] | Time [12] | solubility at 18 h [13] | solubility at 18 h [14] | solubility at 18 h [15] | EC50 [16] | IC50 [17] | Activity (Rattus norvegicus [18]) | Activity (Rattus norvegicus [19]) |
| --- | --- | --- | --- | --- | --- | --- | --- | --- | --- | --- | --- | --- | --- | --- | --- | --- | --- | --- | --- |
| CC(C)C[C@H](NC(=O)[C@H](C)NC(=O)[C@H](C)NC(=O)[C@@H](NC(=O)[C@H](CO)NC(=O)[C@H](CC(C)C)NC(=O)[C@H](CCC(=O)O)NC(=O)[C@H](CO)NC(=O)[C@H](C)N)[C@@H](C)O)C(=O)NCC(=O)N[C@@H](CCCNC(=N)N)C(=O)N[C@@H](CC(C)C)C(=O)N[C@@H](CO)C(=O)N[C@@H](C)C(=O)N[C@@H](CCC(=O)O)C(=O)N[C@@H](CC(C)C)C(=O)N[C@@H](Cc1cnc[nH]1)C(=O)N[C@@H](CCCCNC(=O)CC[C@H](NC(=O)CCCCCCCCCCCCCCCCCCC(=O)O)C(=O)O)C(=O)N[C@@H](CC(C)C)C(=O)N[C@@H](C)C(=O)N[C@H](C(=O)N[C@@H](CC(C)C)C(=O)N1CCC[C@H]1C(=O)N[C@@H](CCCNC(=N)N)C(=O)N[C@H](C(=O)N[C@@H](CCC(=O)O)C(=O)N[C@H](C(=O)NCC(=O)N[C@@H](CO)C(=O)NCC(=O)N[C@@H](CO)C(=O)N1CCC[C@H]1C(N)=O)[C@@H](C)O)[C@@H](C)O)[C@@H](C)O (H-ASELSTAALGRLSAELHK([γGlu-C20 diacid])LATLPRTETGSGSP-NH2) | ≥ 200 µM | 0.455 nM | ≥ 200 µM | 0.019 nM | 0.085 nM | 0.028 nM | ≥ 200 µM | ≥ 200 µM | 100% | 0.049 nM | ≥ 200 µM | > 45 h | ≥ 200 µM | ≥ 200 µM | ≥ 200 µM | – | – | – | – |
| CC(C)C[C@H](NC(=O)[C@H](C)NC(=O)[C@H](C)NC(=O)[C@@H](NC(=O)[C@H](CO)NC(=O)[C@H](CC(C)C)NC(=O)[C@H](CCC(=O)O)NC(=O)[C@H](CO)NC(=O)[C@H](C)NC(=O)COCCOCCNC(=O)CC[C@H](NC(=O)CCCCCCCCCCCCCCCCCCC(=O)O)C(=O)O)[C@@H](C)O)C(=O)NCC(=O)N[C@@H](CCCNC(=N)N)C(=O)N[C@@H](CC(C)C)C(=O)N[C@@H](CO)C(=O)N[C@@H](C)C(=O)N[C@@H](CCC(=O)O)C(=O)N[C@@H](CC(C)C)C(=O)N[C@@H](Cc1cnc[nH]1)C(=O)N[C@@H](CCC(=O)O)C(=O)N[C@@H](CC(C)C)C(=O)N[C@@H](C)C(=O)N[C@H](C(=O)N[C@@H](CC(C)C)C(=O)N1CCC[C@H]1C(=O)N[C@@H](CCCNC(=N)N)C(=O)N[C@H](C(=O)N[C@@H](CCC(=O)O)C(=O)N[C@H](C(=O)NCC(=O)N[C@@H](CO)C(=O)NCC(=O)N[C@@H](CO)C(=O)N1CCC[C@H]1C(N)=O)[C@@H](C)O)[C@@H](C)O)[C@@H](C)O ({C20 diacid-γGlu-AEEA}-ASELSTAALGRLSAELHELATLPRTETGSGSP-NH2) | ≥ 200 µM | 0.146 nM | ≥ 200 µM | 0.018 nM | 0.085 nM | 0.03 nM | ≥ 200 µM | ≥ 200 µM | 100% | 0.073 nM | ≥ 200 µM | > 45 h | ≥ 200 µM | ≥ 200 µM | ≥ 200 µM | 0.027 nM | – | – | – |
| CC(C)C[C@H](NC(=O)[C@H](C)NC(=O)[C@H](C)NC(=O)[C@@H](NC(=O)[C@H](CO)NC(=O)[C@H](CC(C)C)NC(=O)[C@H](CCC(=O)O)NC(=O)[C@H](CO)NC(=O)[C@H](C)NC(=O)CC[C@H](NC(=O)CCCCCCCCCCCCCCCCCCC(=O)O)C(=O)O)[C@@H](C)O)C(=O)NCC(=O)N[C@@H](CCCNC(=N)N)C(=O)N[C@@H](CC(C)C)C(=O)N[C@@H](CO)C(=O)N[C@@H](C)C(=O)N[C@@H](CCC(=O)O)C(=O)N[C@@H](CC(C)C)C(=O)N[C@@H](Cc1cnc[nH]1)C(=O)N[C@@H](CCC(=O)O)C(=O)N[C@@H](CC(C)C)C(=O)N[C@@H](C)C(=O)N[C@H](C(=O)N[C@@H](CC(C)C)C(=O)N1CCC[C@H]1C(=O)N[C@@H](CCCNC(=N)N)C(=O)N[C@H](C(=O)N[C@@H](CCC(=O)O)C(=O)N[C@H](C(=O)NCC(=O)N[C@@H](CO)C(=O)NCC(=O)N[C@@H](CO)C(=O)N[C@@H](Cc1ccc(O)cc1)C(N)=O)[C@@H](C)O)[C@@H](C)O)[C@@H](C)O ({C20 diacid-γGlu}-ASELSTAALGRLSAELHELATLPRTETGSGSY-NH2) | ≥ 200 µM | 0.029 nM | – | 0.037 nM | 0.113 nM | 0.049 nM | ≥ 200 µM | ≥ 200 µM | 100% | 0.062 nM | ≥ 200 µM | > 45 h | ≥ 200 µM | ≥ 200 µM | ≥ 200 µM | 0.046 nM | – | – | – |
| CC(C)C[C@H](NC(=O)[C@H](CCCNC(=N)N)NC(=O)CNC(=O)[C@H](CC(C)C)NC(=O)[C@@H](NC(=O)[C@H](C)NC(=O)[C@@H](NC(=O)[C@H](CO)NC(=O)[C@H](CC(C)C)NC(=O)[C@H](CCC(=O)O)NC(=O)[C@H](CO)NC(=O)[C@H](C)NC(=O)CC[C@H](NC(=O)CCCCCCCCCCCCCCCCCCC(=O)O)C(=O)O)[C@@H](C)O)[C@@H](C)O)C(=O)N[C@@H](CO)C(=O)N[C@@H](C)C(=O)N[C@@H](CCC(=O)O)C(=O)N[C@@H](CC(C)C)C(=O)N[C@@H](Cc1cnc[nH]1)C(=O)N[C@@H](CCC(=O)O)C(=O)N[C@@H](CC(C)C)C(=O)N[C@@H](CO)C(=O)N[C@H](C(=O)N[C@@H](Cc1ccc(O)cc1)C(=O)N1CCC[C@H]1C(=O)N[C@@H](CCCNC(=N)N)C(=O)N[C@H](C(=O)N[C@@H](CCC(=O)O)C(=O)N[C@H](C(=O)NCC(=O)N[C@@H](CO)C(=O)NCC(=O)N[C@@H](CO)C(=O)N[C@@H](Cc1ccc(O)cc1)C(N)=O)[C@@H](C)O)[C@@H](C)O)[C@@H](C)O ({C20 diacid-γGlu}-ASELSTATLGRLSAELHELSTYPRTETGSGSY-NH2) | ≥ 200 µM | 0.045 nM | – | 0.023 nM | – | 0.04 nM | ≥ 200 µM | ≥ 200 µM | – | 0.092 nM | ≥ 200 µM | – | ≥ 200 µM | ≥ 200 µM | ≥ 200 µM | 0.02 nM | 0.159 nM | 46% | 68% |
